Measured values as given in patent publication US11576906B2, “Inhibiting mutant IDH-1” (FORMA Therapeutics, Inc., priority 2018, dated 2023).

Assays:
[1] = Dynamic vapor sorption (DVS) of solid form; format: physicochemical
[2] = Brain distribution after 6 hour intravenous infusion in Sprague Dawley rats; format: in vivo; conditions: rat, brain/plasma, 7.5 mg/kg 6 hour intravenous infusion

| Kp uu at 6 h [2] | Structure (SMILES) | hygroscopicity [1] |
| --- | --- | --- |
|  | C[C@H](Nc1ccc(C#N)n(C)c1=O)c1cc2cc(Cl)ccc2[nH]c1=O [Compound 1 Type A, (S)-5-((1-(6-chloro-2-oxo-1,2-dihydroquinolin-3-yl)ethyl)amino)-1-methyl-6-oxo-1,6-dihydropyridine-2-carbonitrile] | not hygroscopic |
| 0.5 | C[C@@H](Nc1nc(N[C@H](C)C(F)(F)F)nc(-c2cccc(Cl)n2)n1)C(F)(F)F [AG-881] |  |
